Results published in US9302999B2, “Substituted triazoles as herbicides” (E. I. DU PONT DE NEMOURS AND COMPANY, priority 2012, dated 2016).

Tests used:
Assay type in all cases: in vivo
[1] = test system: rice (Oryza sativa); experiment: Test B flooded paddy: rice; details: Flood; 250 g ai/ha; applied to paddy water at 2-leaf stage; visually evaluated after 13 to 15 days
Procedure, shortened: (§1)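 Plants were grown to the 2-leaf stage and pots flooded to 3 cm above soil. Compounds were applied directly into the paddy water, with depth kept for the test. After 13–15 days in greenhouse, response was rated visually against controls on a 0 (no effect) to 100 (complete control) scale.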

[2] = test system: ducksalad (Heteranthera limosa); experiment: Test B flooded paddy: ducksalad; details: Flood; 250 g ai/ha; applied to paddy water at 2-leaf stage; visually evaluated after 13 to 15 days
Procedure, shortened: as §1

[3] = test system: sedge, umbrella (small-flower umbrella sedge Cyperus difformis); experiment: Test B flooded paddy: sedge, umbrella; details: Flood; 250 g ai/ha; applied to paddy water at 2-leaf stage; visually evaluated after 13 to 15 days
Procedure, shortened: as §1

[4] = test system: barnyardgrass (Echinochloa crus-galli); experiment: Test A pre-/postemergence: barnyardgrass; details: for Barnyardgrass plant response rating: Postemergence; for Plant response rating, Barnyardgrass: Preemergence
Procedure, shortened: (§2)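 Pre: directed soil spray after planting in loam + sand. Post: same formulation (non-phytotoxic solvent + surfactant) on 1–2-leaf plants, 2–10 cm. Greenhouse ~10 d; visual injury 0–100 vs untreated.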

[5] = test system: wheat (Triticum aestivum); experiment: Test A pre-/postemergence: wheat; details: for Wheat plant response rating: Postemergence; for Plant response rating, Wheat: Preemergence
Procedure, shortened: as §2

[6] = test system: pigweed (Amaranthus retroflexus); experiment: Test A pre-/postemergence: pigweed; details: for Pigweed plant response rating: Postemergence; for Plant response rating, Pigweed: Preemergence
Procedure, shortened: as §2

[7] = test system: barnyardgrass (Echinochloa crus-galli); experiment: Test B flooded paddy: barnyardgrass; details: Flood; 250 g ai/ha; applied to paddy water at 2-leaf stage; visually evaluated after 13 to 15 days
Procedure, shortened: as §1

[8] = test system: velvetleaf (Abutilon theophrasti); experiment: Test A pre-/postemergence: velvetleaf; details: for Velvetleaf plant response rating: Postemergence; for Plant response rating, Velvetleaf: Preemergence
Procedure, shortened: as §2

[9] = test system: corn (Zea mays); experiment: Test A pre-/postemergence: corn; details: for Corn plant response rating: Postemergence; for Plant response rating, Corn: Preemergence
Procedure, shortened: as §2

[10] = test system: morningglory (Ipomoea spp.); experiment: Test A pre-/postemergence: morningglory; details: Preemergence
Procedure, shortened: as §2

[11] = test system: foxtail, giant (giant foxtail, Setaria faberii); experiment: Test A pre-/postemergence: foxtail, giant; details: for Foxtail, Giant plant response rating: Postemergence; for Plant response rating, Foxtail, Giant: Preemergence
Procedure, shortened: as §2

[12] = test system: crabgrass, large (large crabgrass, Digitaria sanguinalis); experiment: Test A pre-/postemergence: crabgrass, large; details: for Crabgrass, Large plant response rating: Postemergence; for Plant response rating, Crabgrass, Large: Preemergence
Procedure, shortened: as §2

[13] = 125 g ai/ha, 0 to 100 scale, 0 is no effect, 100 is complete control
[14] = 500 g ai/ha, visual rating on 0 to 100 scale (0 no effect, 100 complete control), approximately ten days
[15] = 125 g ai/ha, 0 to 100 scale (0 no effect, 100 complete control)
[16] = 500 g ai/ha, 0 to 100 scale, 0 is no effect, 100 is complete control

| SMILES | Plant response rating, Rice (0 to 100 scale, 0 is no effect, 100 is complete control) [1] | Plant response rating, Ducksalad (0 to 100 scale, 0 is no effect, 100 is complete control) [2] | Plant response rating, Sedge, Umbrella (0 to 100 scale, 0 is no effect, 100 is complete control) [3] | Barnyardgrass plant response rating [4, 13] | Barnyardgrass plant response rating [4, 14] | Plant response rating, Barnyardgrass [4, 15] | Plant response rating, Barnyardgrass [4, 16] | Wheat plant response rating [5, 13] | Wheat plant response rating [5, 14] | Plant response rating, Wheat [5, 15] | Plant response rating, Wheat [5, 16] | Pigweed plant response rating [6, 13] | Pigweed plant response rating [6, 14] | Plant response rating, Pigweed [6, 15] | Plant response rating, Pigweed [6, 16] | Plant response rating, Barnyardgrass (0 to 100 scale, 0 is no effect, 100 is complete control) [7] | Velvetleaf plant response rating [8, 13] | Velvetleaf plant response rating [8, 14] | Plant response rating, Velvetleaf [8, 15] | Plant response rating, Velvetleaf [8, 16] | also measured |
| --- | --- | --- | --- | --- | --- | --- | --- | --- | --- | --- | --- | --- | --- | --- | --- | --- | --- | --- | --- | --- | --- |
| Cc1nn(-c2ccc(F)cc2)nc1Oc1ccc(F)c(C(F)(F)F)c1 [Compound 56] | 40 | 80 | 80 | 10 | 30 | 0 | 80 | 10 | 20 | 0 | 10 | 100 | 100 | 30 | 90 | 30 | 40 | 90 | 0 | 10 | Corn plant response rating [9, 13]: 10; Corn plant response rating [9, 14]: 20; Plant response rating, Corn [9, 15]: 0; Plant response rating, Corn [9, 16]: 10; Plant response rating, Morningglory [10, 15]: 0; Plant response rating, Morningglory [10, 16]: 10; Foxtail, Giant plant response rating [11, 13]: 20; Foxtail, Giant plant response rating [11, 14]: 80; Plant response rating, Foxtail, Giant [11, 15]: 30; Plant response rating, Foxtail, Giant [11, 16]: 100; Crabgrass, Large plant response rating [12, 13]: 50; Crabgrass, Large plant response rating [12, 14]: 80; Plant response rating, Crabgrass, Large [12, 15]: 90; Plant response rating, Crabgrass, Large [12, 16]: 100 |
| Cc1nn(-c2ccc(F)cc2Cl)nc1Cc1ccnc(C(F)(F)F)c1 [Compound 65] | 25 | 60 | 75 | 10 | 40 | 10 | 70 | 0 | 20 | 0 | 0 | 90 | 100 | 80 | 100 | 30 | 30 | 60 | 0 | 10 | Corn plant response rating [9, 13]: 10; Corn plant response rating [9, 14]: 20; Plant response rating, Corn [9, 15]: 0; Plant response rating, Corn [9, 16]: 10; Plant response rating, Morningglory [10, 15]: 10; Plant response rating, Morningglory [10, 16]: 20; Foxtail, Giant plant response rating [11, 13]: 20; Foxtail, Giant plant response rating [11, 14]: 70; Plant response rating, Foxtail, Giant [11, 15]: 90; Plant response rating, Foxtail, Giant [11, 16]: 100; Crabgrass, Large plant response rating [12, 13]: 20; Crabgrass, Large plant response rating [12, 14]: 50; Plant response rating, Crabgrass, Large [12, 15]: 30; Plant response rating, Crabgrass, Large [12, 16]: 100 |
